Biological target: T1, NS3 genotype 1b protease (Hepatitis C virus genotype 1b, UniProt Q9WMX2, E1202G)
T1 construct: Purified NS3 protease domain (amino acids 1-181) of the genotype 1b and 3a virus were generated as above; K3 hexahistidine tag (N); rTEV protease cleavage site (N); made in house; host or cells: E. coli BL21AI, pET28 vector p28-N6H-Tev-NS3(181)1b
Assay: Ki determination, NS3 protease genotype 1b (fluorogenic depsipeptide substrate)
Assay type: biochemical
Outline: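 The His-tagged HCV NS3 protease domain (residues 1-181, genotype 1b con-1) was expressed in E. coli, and 50 pM enzyme with 20 μM NS4A peptide was used. Inhibitor (100 nM to 5 pM, 3-fold steps) was pre-incubated 1 h at room temperature in 50 mM HEPES, 40% glycerol, 0.05% Triton X-100, 10 mM DTT, 10% DMSO. The reaction was started with 4 μM fluorogenic substrate, and fluorescence (ex 340/em 490 nm) was read every 30 s between 90 and 120 min. Ki^app came from fitting rates with the Morrison equation.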

COc1ccc2nc3c(nc2c1)O[C@H]1CN(C(=O)[C@H](C(C)(C)C)NC(=O)O[C@@H]2C[C@H]2CCCCC3F)[C@H](C(=O)N[C@]2(C(=O)NS(=O)(=O)C3(C)CC3)C[C@H]2C(F)F)[C@@H]1C (stereo partly drawn) [Example 47, (1aR,5S,8S,9S,10R,22aR)-5-tert-butyl-N-[(1R,2R)-2-(difluoromethyl)-1-{[(1-methylcyclopropyl)sulfonyl]carbamoyl}cyclopropyl]-18-fluoro-14-methoxy-9-methyl-3,6-dioxo-1,1a,3,4,5,6,9,10,18,19,20,21,22,22a-tetradecahydro-8H-7,10-methanocyclopropa[18,19][1,10,3,6]dioxadiazacyclononadecino[11,12-b]quinoxaline-8-carboxamide]
Ki: 70 pM

Source: patent US20150175655A1 (priority 2012, published 2015)
